Data as given in the NIST ThermoML archive (doi:10.1021/je049671t).

Test: xn = mol fraction of the nth substance listed
Conditions: Liquid, Vibrating tube method

CC(C)C [2-methylpropane] + CCC
Conditions | mass density [kg/m3]
300 K, 4958.9 kPa, x2 = 0.499 | 533.34
300 K, 4994.5 kPa, x2 = 0.75 | 518.46
300 K, 5016.4 kPa, x2 = 0.25 | 547.38
300 K, 5458.6 kPa, x2 = 0.499 | 534.46
300 K, 5458.9 kPa, x2 = 0.75 | 519.57
300 K, 5511.8 kPa, x2 = 0.25 | 548.38
300 K, 5960.9 kPa, x2 = 0.75 | 520.74
300 K, 5975.7 kPa, x2 = 0.499 | 535.56
300 K, 6025.1 kPa, x2 = 0.25 | 549.47
300 K, 6473 kPa, x2 = 0.75 | 521.92
300 K, 6516 kPa, x2 = 0.25 | 550.41
300 K, 6517.3 kPa, x2 = 0.499 | 536.72
300 K, 6954.6 kPa, x2 = 0.75 | 522.99
300 K, 6957 kPa, x2 = 0.25 | 551.23
300 K, 6984.7 kPa, x2 = 0.499 | 537.69
320 K, 1020.5 kPa, x2 = 0.25 | 509.69
320 K, 1325.3 kPa, x2 = 0.75 | 475.52
320 K, 1461.2 kPa, x2 = 0.499 | 494.61
320 K, 1500 kPa, x2 = 0.25 | 511.28
320 K, 1505.3 kPa, x2 = 0.75 | 476.31
320 K, 2021.1 kPa, x2 = 0.75 | 478.51
320 K, 2023.3 kPa, x2 = 0.25 | 512.94
320 K, 2041.5 kPa, x2 = 0.499 | 496.75
320 K, 2488.7 kPa, x2 = 0.499 | 498.31
320 K, 2517.7 kPa, x2 = 0.75 | 480.54
320 K, 2522.2 kPa, x2 = 0.25 | 514.49
320 K, 3007.6 kPa, x2 = 0.25 | 515.95
320 K, 3023.9 kPa, x2 = 0.499 | 500.12
320 K, 3025.6 kPa, x2 = 0.75 | 482.53
320 K, 3506.4 kPa, x2 = 0.75 | 484.35
320 K, 3508.1 kPa, x2 = 0.25 | 517.4
320 K, 3550 kPa, x2 = 0.499 | 501.84
320 K, 3994.2 kPa, x2 = 0.75 | 486.12
320 K, 4022.9 kPa, x2 = 0.25 | 518.87
320 K, 4037.4 kPa, x2 = 0.499 | 503.38
320 K, 4507.7 kPa, x2 = 0.75 | 487.92
320 K, 4522.1 kPa, x2 = 0.25 | 520.26
320 K, 4530.4 kPa, x2 = 0.499 | 504.9
320 K, 4954.2 kPa, x2 = 0.499 | 506.17
320 K, 4968 kPa, x2 = 0.75 | 489.5
320 K, 4990.1 kPa, x2 = 0.25 | 521.53
320 K, 5517.3 kPa, x2 = 0.25 | 522.93
320 K, 5527.2 kPa, x2 = 0.75 | 491.33
320 K, 5545.8 kPa, x2 = 0.499 | 507.9
320 K, 5997.3 kPa, x2 = 0.499 | 509.24
320 K, 6001.8 kPa, x2 = 0.25 | 524.19
320 K, 6003.6 kPa, x2 = 0.75 | 492.85
320 K, 6479.8 kPa, x2 = 0.25 | 525.39
320 K, 6495 kPa, x2 = 0.75 | 494.38
320 K, 6524.9 kPa, x2 = 0.499 | 510.74
320 K, 6930.3 kPa, x2 = 0.499 | 511.85
320 K, 6964.1 kPa, x2 = 0.25 | 526.6
320 K, 7044.7 kPa, x2 = 0.75 | 496.03
340 K, 1514.2 kPa, x2 = 0.25 | 479.11
340 K, 2002.6 kPa, x2 = 0.499 | 459.37
340 K, 2028 kPa, x2 = 0.25 | 481.6
340 K, 2456 kPa, x2 = 0.499 | 461.99
340 K, 2489.8 kPa, x2 = 0.75 | 441.74
340 K, 2523.8 kPa, x2 = 0.25 | 483.92
340 K, 2981.6 kPa, x2 = 0.499 | 464.85
340 K, 3027.2 kPa, x2 = 0.25 | 486.13
340 K, 3027.4 kPa, x2 = 0.75 | 445.39
340 K, 3485.7 kPa, x2 = 0.499 | 467.47
340 K, 3510.1 kPa, x2 = 0.75 | 448.46
340 K, 3532.9 kPa, x2 = 0.25 | 488.26
340 K, 3969 kPa, x2 = 0.75 | 451.17
340 K, 4012.5 kPa, x2 = 0.499 | 470.04
340 K, 4015.7 kPa, x2 = 0.25 | 490.21
340 K, 4498.6 kPa, x2 = 0.75 | 454.09
340 K, 4503 kPa, x2 = 0.25 | 492.08
340 K, 4508.4 kPa, x2 = 0.499 | 472.34
340 K, 4963.1 kPa, x2 = 0.75 | 456.51
340 K, 4964.9 kPa, x2 = 0.25 | 493.81
340 K, 4990.6 kPa, x2 = 0.499 | 474.5
340 K, 5450.5 kPa, x2 = 0.499 | 476.5
340 K, 5511.1 kPa, x2 = 0.75 | 459.22
340 K, 5522.3 kPa, x2 = 0.25 | 495.84
340 K, 5960.4 kPa, x2 = 0.75 | 461.33
340 K, 5982 kPa, x2 = 0.499 | 478.68
340 K, 6022.3 kPa, x2 = 0.25 | 497.59
340 K, 6506.1 kPa, x2 = 0.75 | 463.79
340 K, 6513 kPa, x2 = 0.499 | 480.75
340 K, 6527.5 kPa, x2 = 0.25 | 499.31
340 K, 6963 kPa, x2 = 0.25 | 500.75
340 K, 7045.5 kPa, x2 = 0.499 | 482.76
340 K, 7081.1 kPa, x2 = 0.75 | 466.25
360 K, 2023.3 kPa, x2 = 0.25 | 441.34
360 K, 2495.4 kPa, x2 = 0.499 | 418.03
360 K, 2532.9 kPa, x2 = 0.25 | 445.56
360 K, 2996.3 kPa, x2 = 0.499 | 423.54
360 K, 3022.3 kPa, x2 = 0.25 | 449.26
360 K, 3496.3 kPa, x2 = 0.499 | 428.34
360 K, 3518.2 kPa, x2 = 0.75 | 399.53
360 K, 3519.8 kPa, x2 = 0.25 | 452.71
360 K, 3960 kPa, x2 = 0.75 | 405.21
360 K, 3971.4 kPa, x2 = 0.75 | 405.35
360 K, 3988.8 kPa, x2 = 0.499 | 432.58
360 K, 4022.3 kPa, x2 = 0.25 | 455.95
360 K, 4484.8 kPa, x2 = 0.75 | 411.08
360 K, 4488.6 kPa, x2 = 0.499 | 436.48
360 K, 4520.2 kPa, x2 = 0.25 | 458.95
360 K, 4923.7 kPa, x2 = 0.75 | 415.42
360 K, 4983.9 kPa, x2 = 0.25 | 461.58
360 K, 5000.3 kPa, x2 = 0.499 | 440.17
360 K, 5436.6 kPa, x2 = 0.499 | 443.06
360 K, 5456.3 kPa, x2 = 0.75 | 420.47
360 K, 5515.2 kPa, x2 = 0.25 | 464.45
360 K, 5932 kPa, x2 = 0.75 | 424.33
360 K, 5982.9 kPa, x2 = 0.25 | 466.86
360 K, 5992.3 kPa, x2 = 0.499 | 446.54
360 K, 6444.6 kPa, x2 = 0.25 | 469.09
360 K, 6487.4 kPa, x2 = 0.499 | 449.41
360 K, 6509.8 kPa, x2 = 0.75 | 428.41
360 K, 6932.1 kPa, x2 = 0.75 | 431.05
360 K, 6956.4 kPa, x2 = 0.25 | 471.48
360 K, 6977 kPa, x2 = 0.499 | 452.14
380 K, 2977.2 kPa, x2 = 0.25 | 394.6
380 K, 3495.5 kPa, x2 = 0.25 | 403.43
380 K, 3540.7 kPa, x2 = 0.499 | 358.66
380 K, 3969.5 kPa, x2 = 0.25 | 409.99
380 K, 4047.9 kPa, x2 = 0.499 | 373.76
380 K, 4453.9 kPa, x2 = 0.25 | 415.7
380 K, 4501.9 kPa, x2 = 0.499 | 383.09
380 K, 5016 kPa, x2 = 0.499 | 391.43
380 K, 5019.6 kPa, x2 = 0.25 | 421.52
380 K, 5488.5 kPa, x2 = 0.25 | 425.84
380 K, 5506.7 kPa, x2 = 0.499 | 398.06
380 K, 5943.1 kPa, x2 = 0.499 | 403.16
380 K, 5972.1 kPa, x2 = 0.25 | 429.89
380 K, 6422.5 kPa, x2 = 0.499 | 408.17
380 K, 6471.8 kPa, x2 = 0.25 | 433.74
380 K, 6885.8 kPa, x2 = 0.499 | 412.58
380 K, 7060.8 kPa, x2 = 0.25 | 437.93

mass density [kg/m3]
Conditions | 300 K | 320 K | 340 K | 360 K | 380 K
x2 = 0.25 | 537.31 | 509.12 | 478.17 | 440.78 | 390.71
x2 = 0.499 | 522.96 | 491.75 | 457.03 | 416.83 | 346.9
x2 = 0.75 | 507.33 | 475.51 | 436.07 | 388.35 | –
